Where two headings read alike, the source gives them in different places.
Experiments:
[1] = tested on: rabbit iliac artery rings; assay: EDHF-type relaxation of isolated rabbit iliac artery rings constricted with phenylephrine; format: cell-based; details: for EC50: Oryctolagus cuniculus; for Maximal EDHF-type relaxations, % of PE-induced tone: approximate, at concentrations ~3 μM; for Maximal EDHF-type relaxations, % of PE-induced tone / Maximal EDHF-type relaxation, % of PE-induced tone (control): L-NAME 300 μM + indomethacin 10 μM
Experimental: Isolated Ring Preparations. Male New Zealand white rabbits (2-2.5 kg) were sacrificed with sodium pentobarbitone (120 mg/kg; i.v.) and the iliac artery removed and transferred to cold Holman's buffer of the following composition (mM): 120 NaCl, 5 KCl, 2.5 CaCl2, 1.3 NaH2PO4, 25 NaHCO3, 11 glucose, and 10 sucrose. […] Endothelium-intact rings were incubated for 40 min with N^G-nitro-L-arginine methyl ester (L-NAME, 300 μM) and indomethacin (10 μM) and following constriction with phenylephrine (PE) cumulative concentration-relaxation curves to ACh or A23187 were constructed. Some preparations were preincubated for 40 min with either 2′5′-dideoxyadenosine (2′5′-DDA, 200 μM), 3-isobutyl-1-methylxanthine (IBMX, 20 μM), 18α-GA (100 μM), glibenclamide (10 μM), the combination of charybdotoxin (100 nM) and apamin (300 nM), or the combination of charybdotoxin (100 nM), apamin (300 nM) and IBMX (20 μM). Concentration-response curves to ACh and A23187 were also constructed for endothelium-denuded rings in the absence/presence of IBMX (20 μM). In experiments with IBMX the concentration of PE used to induce tone was increased from 1 to 3 μM. All reagents were obtained from Sigma, U.K.
(§1) Statistical Analysis All data are given as mean±SEM, where n denotes the number of animals studied for each data point, and were compared by the Student's t-test for paired or unpaired data as appropriate. P<0.05 was considered as significant. Concentration-response curves were assessed by one-way analysis of variance (ANOVA) followed by the Bonferroni multiple comparisons test.

[2] = tested on: smooth muscle cAMP levels; assay: Radioimmunoassay of cAMP in iliac artery rings; format: cell-based, rabbit; details: for Increase (elevation) in smooth muscle cAMP levels: rings incubated with L-NAME and indomethacin, endothelium-dependent
Experimental: (§2) Radioimmunoassay. Multiple rings from the same artery were incubated in oxygenated Holmans buffer containing L-NAME (300 μM) and indomethacin (10 μM) for 40 min at 37° C. in the presence or absence of 18α-GA (100 μM). Rings were frozen in liquid N2 at time points up to 180 s following addition of ACh or A23187 and stored at −70° C. before extraction of cAMP or cGMP in 6% trichloroacetic acid, followed by neutralization with water saturated diethyl ether and subsequent radioimmunoassay (Amersham UK). PE (1 μM) was added 3 min before the initial control point and control experiments were performed with endothelium-denuded rings. Nucleotide levels were expressed relative to protein content (27).

[3] = tested on: rabbit iliac artery rings; format: cell-based; details: for Effect on PE contractions: 2′,5′-DDA 200 μM, glibenclamide 10 μM, charybdotoxin 100 nM plus apamin 300 nM
Experimental: Isolated Ring Preparations. Male New Zealand white rabbits (2-2.5 kg) were sacrificed with sodium pentobarbitone (120 mg/kg; i.v.) and the iliac artery removed and transferred to cold Holman's buffer of the following composition (mM): 120 NaCl, 5 KCl, 2.5 CaCl2, 1.3 NaH2PO4, 25 NaHCO3, 11 glucose, and 10 sucrose. The vessels were stripped of adherent tissue, and rings 2-3 mm wide cut and suspended in organ chambers containing gassed (95% 02, 5% CO2, pH 7.4) buffer at 37 C. Tension was set at 0.25 g and during an equilibrium period of 1 h the tissues were repeatedly washed with fresh buffer and tension readjusted following stress relaxation. Endothelium-intact rings were incubated for 40 min with N^G-nitro-L-arginine methyl ester (L-NAME, 300 μM) and indomethacin (10 μM) and following constriction with phenylephrine (PE) cumulative concentration-relaxation curves to ACh or A23187 were constructed. Some preparations were preincubated for 40 min with either 2′5′-dideoxyadenosine (2′5′-DDA, 200 μM), 3-isobutyl-1-methylxanthine (IBMX, 20 μM), 18α-GA (100 μM), glibenclamide (10 μM), the combination of charybdotoxin (100 nM) and apamin (300 nM), or the combination of charybdotoxin (100 nM), apamin (300 nM) and IBMX (20 μM). Concentration-response curves to ACh and A23187 were also constructed for endothelium-denuded rings in the absence/presence of IBMX (20 μM). In experiments with IBMX the concentration of PE used to induce tone was increased from 1 to 3 μM. All reagents were obtained from Sigma, U.K.

[4] = tested on: sandwich preparations of rabbit iliac artery; assay: 'Sandwich' bioassay preparations of iliac artery (endothelium-intact donor ring, denuded detector strip); format: cell-based
Text: ‘Sandwich’ preparations. Rings of iliac artery 2-3 mm wide were denuded of endothelium, cut into strips and pierced ˜2 mm from each end using a Monoject needle (0.9 mm×40 mm). These strips were introduced into the lumen of rings of endothelium-intact iliac artery 4-5 mm wide and the tissues sutured together. Composite preparations were then mounted in a Mulvany Multi Myograph (Danish Myo Technology) with the pierced denuded strips hooked onto the large vessel mountings. Tension was initially set at ˜0.25 g and readjusted during an equilibrium period of 1 h. The preparations were then incubated for 40 min with L-NAME (300 μM) and indomethacin (10 μM), constricted with PE (1 or 3 μM), and concentration-response curves constructed for ACh in the presence/absence of IBMX (20 μM), or A23187 in the presence/absence of IBMX (20 μM) or 2′5′DDA (200 μM).
as §1

[5] = tested on: subintimal smooth muscle cells of rabbit iliac artery strips; assay: Membrane potential experiments (sharp microelectrode) in iliac artery strips; format: cell-based
Experimental: Membrane Potential Experiments. Iliac artery strips were held adventitia down in an oxygenated (95% O2, 5% CO2) organ chamber by a Harp slice grid (ALA Scientific Instruments, USA) superfused (2 ml/min at 37° C.) with Holmans solution containing 300 μM L-NAME and 10 μM indomethacin. Transmembrane potential was recorded with glass capillary microelectrodes (tip resistance of 60-110 M[…] filled with 3M KCl and connected to the headstage of a SEC-10LX amplifier (NPI Electronic, Germany). Successful impalements were achieved following a sudden negative drop in potential from baseline and a stable signal for at least 2 min. To ensure recordings were made from smooth muscle cells the microelectrode was advanced into the subintima using a PCS-5000 micromanipulator (Burleigh Instruments, UK) until there had been 2-3 such negative deflections. After first obtaining control responses to ACh by direct administration into the organ chamber under conditions of no flow, the strips were washed with fresh buffer before incubation with either 200 μM […] alone or the combination of 200 μM 2′,3′-DDA plus 30 μM IBMX followed by repeat exposure to ACh.

[6] = tested on: gap junctions in isolated rabbit femoral arteries; assay: Dye transfer (calcein AM) from endothelium to media in perfused femoral arteries; format: cell-based; details: for Space constant of decay of medial fluorescence: calcein AM, control 8.54 μm; for Dye within the vessel wall after intraluminal perfusion: 10 μM dye perfused through the lumen for 30 min
Experimental: Dye Transfer. […] In control experiments arteries were perfused with 10 μM calcein, which is membrane impermeable. The vessels were subsequently removed from the myograph and fixed in 0.1 M PBS containing 0.2% glutaraldehyde and 2% formalin for 90 min before cryopreservation in OCT compound (Agar Scientific, […], UK), cooled by liquid N2. Cryosections of transverse rings (10 μm thick) were prepared and mounted onto poly-L-lysine-coated slides under Fluorsave (Calbiochem) and imaged with a TCS four-dimensional confocal laser scanning system (Leica) with the filters set for 490 nm excitation and 525 nm emission. A gallery of several images was collected at 0.5-μm steps for each sample followed by image processing by using […] software to obtain a maximum projection image.

cGMP levels = assay: Radioimmunoassay of cGMP in iliac artery rings; format: cell-based, rabbit; details: in the presence of L-NAME and indomethacin
Experimental: as §2

pig coronary artery = details: cited from earlier work
[7] = endothelium-intact rings, L-NAME + indomethacin, control of IBMX / 2′,5′-DDA series, read-out: EC50 of EDHF-type relaxation (control)
[8] = endothelium-intact rings, control of IBMX / 2′,5′-DDA series

C[C@H]1O[C@@H](n2cnc3c(N)ncnc32)C[C@@H]1O [2′,5′-DDA, 2′,5′-dideoxyadenosine]
Maximal relaxation to A23187 in presence of 2′,5′-DDA, % of PE-induced tone ([1]; 2′,5′-DDA 200 μM, A23187-evoked, endothelium-intact rings): 40.3±8.3% | Maximal relaxation to ACh in presence of 2′,5′-DDA ([1]; 2′,5′-DDA 200 μM, ACh-evoked, endothelium-intact rings): 11.0±1.9% | Effect on transient peak in cAMP levels evoked by ACh ([2]; 2′,5′-DDA 200 μM, ACh 3 μM): abolished | Effect on PE contractions [3]: unaffected | Maximal relaxation to A23187 in sandwich preparations with 2′,5′-DDA, % of PE-induced tone ([4]; 2′,5′-DDA 200 μM): 18.5±9.2%

Nc1ncnc2c1ncn2[C@H]1CC[C@@H](CO)O1 [2′, 3′-DDA, 2′,3′-dideoxyadenoine]
Attenuation of transmission of electrical changes in endothelial membrane potential into subintimal smooth muscle cells ([5]; 200 μM, ACh-evoked): ~75%

Nc1nc2c(nc(Br)n2[C@@H]2O[C@@H]3COP(=O)(O)O[C@H]3[C@H]2O)c(=O)[nH]1 [8-bromo-cGMP]
Space constant of decay of medial fluorescence ([6]; 1 mM nucleotide analogue): 8.39 ± 0.44 μm

CC1(C)[C@@H](O)CC[C@]2(C)[C@H]3C(=O)C=C4[C@H]5C[C@@](C)(C(=O)O)CC[C@]5(C)CC[C@@]4(C)[C@]3(C)CC[C@@H]12 [18α-GA, 18α-glycyrrhetinic acid]
Effect on EDHF-type relaxations evoked by A23187 ([1]; 18α-GA 100 μM): had no effect | Effect on EDHF-type relaxations evoked by ACh ([1]; 18α-GA 100 μM): effectively abolished | Effect on nucleotide (cAMP) accumulation evoked by A23187 ([2]; 18α-GA 100 μM, A23187 3 μM): no significant effect | Effect on transient rise in cAMP levels evoked by ACh ([2]; 18α-GA 100 μM, ACh 3 μM): abolished

CNc1ccc2oc(C[C@H]3O[C@@]4(CC[C@H]3C)O[C@H]([C@H](C)C(=O)c3ccc[nH]3)[C@H](C)C[C@H]4C)nc2c1C(=O)O [A23187]
Effect on cGMP levels (cGMP levels): unaltered | EC50 ([1]; read-out: EC50 of A23187 relaxation (control of charybdotoxin/apamin series)): 291 ± 128 nM | EC50 [1, 7]: 328 ± 123 nM | Maximal EDHF-type relaxations, % of PE-induced tone [1]: ~40% | Relaxation after endothelial denudation ([1]; endothelium-denuded rings): abolished | Relaxation in endothelium-denuded rings incubated with IBMX, % of PE-induced tone ([1]; endothelium-denuded rings, IBMX 20 μM): 21.7±3.6% | Maximal EDHF-type relaxation, % of PE-induced tone (control) [1, 8]: 50.2±5.6% | Maximal relaxation to A23187, % of PE-induced tone (control of charybdotoxin/apamin series) ([1]; endothelium-intact rings, L-NAME + indomethacin): 50.0±5.8% | Time of peak in cAMP levels ([2]; agonist 3 μM, endothelium-intact rings, L-NAME 300 μM + indomethacin 10 μM): 40 to 50 s | Change of cAMP level in endothelium-denuded preparations ([2]; endothelium-denuded, basal 3.97±0.49 pmol/mg protein): did not significantly increase | Increase (elevation) in smooth muscle cAMP levels [2]: 1.5 fold | Maximal EDHF-type relaxation in sandwich preparations, % of PE-induced tone ([4]; L-NAME 300 μM + indomethacin 10 μM, no modulator): 52.0±8.0% | EC50 ([4]; Oryctolagus cuniculus, read-out: EC50 of relaxation in sandwich preparations): 240 ± 40 nM

CC(=O)OCC[N+](C)(C)C [ACh, acetylcholine]
EC50 [1, 7]: 555 ± 121 nM | Maximal EDHF-type relaxations, % of PE-induced tone [1]: ~40% | Maximal EDHF-type relaxation, % of PE-induced tone (control) [1, 8]: 36.0±5.0% | Subintimal hyperpolarization sustained below baseline ([5]; 3 μM Ach, intact endothelium): ~20 mV | Increase (elevation) in smooth muscle cAMP levels [2]: 1.5 fold

CC(C)Cn1c(=O)n(C)c(=O)c2[nH]cnc21 [IBMX, 3-isobutyl-1-methylxanthine]
Maximal relaxation to A23187 in presence of IBMX ([1]; IBMX 20 μM, A23187-evoked, endothelium-intact rings, control 50.2%): 73.0 ± 8.5% | Maximal relaxation to ACh in presence of IBMX ([1]; IBMX 20 μM, ACh-evoked, endothelium-intact rings, control 36.0%): 65.5±4.5% | Reversal of the 2′,3′-DDA block of hyperpolarization ([5]; IBMX 30 μM after 200 μM 2′,3′-DDA): completely reversed | Space constant of decay of medial fluorescence ([6]; 20 μM IBMX): 11.50±0.80 μm and ≈ 12 μm | Maximal relaxation to A23187 in sandwich preparations with IBMX ([4]; IBMX 20 μM): 70.0±6.50%

CNC[C@H](O)c1cccc(O)c1 [PE, phenylephrine]
PE-evoked constrictions ([3]; 1 μM PE, L-NAME 300 μM and indomethacin 10 μM, intact endothelium, pooled data): 2.0 ± 0.1 g | Initial tension restored by PE in presence of IBMX ([3]; 3 μM PE, IBMX 20 μM, pooled data): 1.8 ± 0.1 g

O=C(O)CN(CC(=O)O)Cc1cc2c(cc1O)Oc1cc(O)c(CN(CC(=O)O)CC(=O)O)cc1C21OC(=O)c2ccccc21 [calcein]
Dye within the vessel wall after intraluminal perfusion [6]: only autofluorescence of the internal elastic lamina was evident

COc1cc2c3cc1Oc1cc(ccc1O)C[C@@H]1c4c(cc(OC)c(O)c4Oc4ccc(cc4)C[C@@H]3N(C)CC2)CC[N+]1(C)C [d-tubocurarine]
Effect on endothelial hyperpolarization evoked by 0.5 μM A23187 (pig coronary artery): abolished | Effect on mechanical relaxation and endothelium and smooth muscle hyperpolarizations evoked by substance P (pig coronary artery): inhibited | Effect on relaxation and smooth muscle hyperpolarization evoked by 0.5 μM A23187 (pig coronary artery): unaffected

COc1ccc(Cl)cc1C(=O)NCCc1ccc(S(=O)(=O)NC(=O)NC2CCCCC2)cc1 [glibenclamide]
Effect on EDHF-type relaxations evoked by A23187 ([1]; glibenclamide 10 μM): did not significantly affect | Effect on EDHF-type relaxations evoked by ACh ([1]; glibenclamide 10 μM): did not significantly affect | Effect on PE contractions [3]: unaffected

calcein AM
Dye within the vessel wall after intraluminal perfusion [6]: detected within the vessel wall | Space constant of decay of medial fluorescence (control conditions) ([6]; calcein AM 10 μM, L-NAME + indomethacin): 8.54±0.39 μm
